The values below come from patent US20260232703A1, “USE OF A SYK INHIBITOR FOR THE TREATMENT OF CHEMICAL OR RADIATION INDUCED LUNG INJURY” (Rigel Pharmaceuticals, Inc., priority 2023, published 2026).

SMILES strings stand for the structures. Values after ≈ are worked out from the molar mass of the structure shown.

The nature of data set [1]: Water solubility in aqueous buffer under physiological conditions. The format is physicochemical.
The test system of data set [2] is WAG/RijCmcr rats, leg-out PBI irradiated. Put plainly: Leg-out PBI rat model of radiation-induced lung injury (RILI), lung histology. The format is in vivo. To be noted: 13.5 Gy (female) or 13 Gy (male) leg-out PBI rats; fostamatinib 10 or 20 mg/kg; H&E lung sections, 5-point scale; versus untreated irradiated rats. An excerpt:
Irradiation. Leg-out PBI rat models: WAG/RijCmcr female and male rats are unilaterally irradiated, dorsal to ventral, without the use of anesthetics at 11-12 weeks of age. Irradiations are done between 8-10 am. For leg-out PBI, non-anesthetized rats are immobilized in a plastic jig and irradiated using a […] orthovoltage x-ray system (Precision X-Ray, North Branford, Connecticut). […] Doses can range from 13-14.5 Gy for female rats and 12.5-14.5 Gy for males. During irradiation, each rat is confined to a chamber which allows irradiation of 2 rats simultaneously. One hind limb of each rat is carefully externalized from the chamber and shielded with a 0.25-inch lead block. […] Whole mount lung sections (4 μm thick) are stained with hematoxylin and eosin (H&E) and also stained with tryptase antibody (IMGENEX catalogue #IMG-80250, 1:150) (Gao et al. Radiat Res 179: 465-74; 2013. [PubMed: 23480564]) and five randomly selected fields (20×) of each lung are evaluated. The foamy macrophages, vascular, and alveolar wall thickness are scored as described previously (Medhora et al. Radiat Res 182: 545-55; 2014. [PubMed: 25361399]; Medhora et al. J Radiat Res 56: 248-60; 2015. [PubMed: 25368342]); injury is measured on a 5-point scale and a mean composite lung injury score is calculated. Mast cells are assessed by positive tryptase staining in five randomly selected fields (20×) of each lung. […]

A word on the solubility: it is the concentration that dissolves in the medium under given conditions. `COc1cc(Nc2ncc(F)c(Nc3ccc4c(n3)N(COP(=O)(O)O)C(=O)C(C)(C)O4)n2)cc(OC)c1OC` [Compound 4] yielded a solubility in data set [1] above 5000 µg/mL. The “solubility of phosphate prodrug relative to active drug (Compound 1)” value in data set [1] (Compound 4 vs Compound 1) is “approximately 2000 times greater”. The “mean composite lung injury score” value in data set [2] is “lower”.

As to `COc1cc(Nc2ncc(F)c(Nc3ccc4c(n3)NC(=O)C(C)(C)O4)n2)cc(OC)c1OC` [Compound 1, N4-(2,2-Dimethyl-3-oxo-4H-5-pyrid[1,4]oxazin-6-yl)-5-fluoro-N2-(3,4,5-trimethoxyphenyl)-2,4-pyrimidinediamine], the solubility in data set [1] lay within 1 to 2 µg/mL (≈ 2.13 to 4.25 µM).
